Consider 14 compounds from PubChem BioAssay (NCI).

Test systems include SF-268 CNS; SK-MEL-2 melanoma; CCRF-CEM leukemia; NCI-H23 lung; SR leukemia; OVCAR-8 ovarian; UACC-62 melanoma; NCI-H226 lung; U251 CNS.
Common to all, as to test: NCI anticancer screen, dose series, 48 h

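Following 48 hours of exposure in 96-well plates, responses at five concentrations were used to interpolate endpoints linearly. Here, GI50 denotes the concentration required for 50% inhibition of growth. TGI: concentration producing complete growth inhibition.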 Where only a bound is given, the exact number is not on record here.

With `Cc1cc2c(cc1Cl)S/C(=C/C(=O)O)C(Nc1cccc3nsnc13)=NS2(=O)=O`, the GI50 with SF-268 CNS is 49.2 µM; in the assay on SK-MEL-2 melanoma, above 58.6 µM; in the assay on CCRF-CEM leukemia, 22.5 µM; in the assay on NCI-H23 lung it was 35.2 µM; in the assay on SR leukemia, 32.8 µM; in the assay on OVCAR-8 ovarian, above 53.2 µM. In addition, the GI50 with UACC-62 melanoma was 43 µM; in the assay with NCI-H226 lung, 32.1 µM; in the assay on U251 CNS, 35.6 µM. Besides, the TGI with SF-268 CNS is above 84.4 µM; in the assay on SK-MEL-2 melanoma it was above 77.8 µM; with CCRF-CEM leukemia it was above 81.9 µM; in the assay with NCI-H23 lung, above 61.7 µM; in the assay with SR leukemia, above 100 µM; with OVCAR-8 ovarian it was above 74.8 µM. In addition, the TGI was above 66.2 µM in the assay on UACC-62 melanoma, above 68 µM with NCI-H226 lung and above 71.7 µM in the assay on U251 CNS.
For `O=C(c1cccs1)C1NO[N+]([O-])=C1c1cccs1` (stereo not drawn), the GI50 was 2.35 µM in the assay on SF-268 CNS; 11.2 µM with SK-MEL-2 melanoma; 1.23 µM in the assay on CCRF-CEM leukemia; 2.94 µM with NCI-H23 lung; 2.08 µM in the assay on SR leukemia; 2.9 µM with OVCAR-8 ovarian. The GI50 in the assay with UACC-62 melanoma is 12.1 µM; in the assay on NCI-H226 lung it was 9.9 µM; with U251 CNS it was 5.6 µM. In addition, the TGI was 5.98 µM with SF-268 CNS; 24.5 µM in the assay on SK-MEL-2 melanoma; 3.54 µM in the assay with CCRF-CEM leukemia; 9.42 µM in the assay with NCI-H23 lung; 4.73 µM in the assay on SR leukemia; above 21.9 µM in the assay on OVCAR-8 ovarian. Besides, the TGI in the assay with UACC-62 melanoma was 24.8 µM; with NCI-H226 lung, above 35.2 µM; in the assay on U251 CNS, 12 µM.
`Clc1ccc2c(c1)N(c1ncnc3ccc(-c4cnc5[nH]ncc5c4)cc13)CC2`: the GI50 in the assay on SF-268 CNS was 0.538 µM; in the assay on SK-MEL-2 melanoma it was 7 µM; in the assay with CCRF-CEM leukemia, 0.547 µM; with NCI-H23 lung it was 2.68 µM; in the assay on SR leukemia, 0.722 µM; in the assay with OVCAR-8 ovarian, 0.966 µM. Moreover, the results for the GI50 in the assay with UACC-62 melanoma, with NCI-H226 lung and in the assay on U251 CNS were 0.46 µM, 0.896 µM and 9.79 µM, respectively. The TGI in the assay with SF-268 CNS, in the assay with SK-MEL-2 melanoma, in the assay on CCRF-CEM leukemia, in the assay on NCI-H23 lung, in the assay on SR leukemia and in the assay with OVCAR-8 ovarian was above 100 µM throughout. Besides, the TGI in the assay with UACC-62 melanoma, in the assay on NCI-H226 lung and with U251 CNS was above 100 µM each time.
Consider `Cc1ccc(C)c(N2C(=O)C(=O)C(c3nc4ccccc4s3)C(=Nc3cccc4c(=O)[nH][nH]c(=O)c34)C2=O)c1` (stereo not drawn), for which the TGI in the assay with SF-268 CNS, with SK-MEL-2 melanoma, with CCRF-CEM leukemia, in the assay on NCI-H23 lung, in the assay with SR leukemia and in the assay on OVCAR-8 ovarian was above 100 µM throughout. For the same compound, the TGI with UACC-62 melanoma, with NCI-H226 lung and with U251 CNS was above 100 µM each time.
For `O=C(Cl)C1=C(c2ccccc2)C1c1ccccc1` (stereo not drawn), the TGI with SF-268 CNS, in the assay with SK-MEL-2 melanoma, in the assay on CCRF-CEM leukemia, with NCI-H23 lung, in the assay on SR leukemia and with OVCAR-8 ovarian was above 100 µM in each case. Further, the TGI with UACC-62 melanoma, in the assay on NCI-H226 lung and in the assay on U251 CNS was above 100 µM throughout.
On to `CCN(CC)c1ccc(/C=C/C2=[N+](C)c3ccccc3C2(C)C)c(C)c1`, for which the GI50 was 0.1 µM in the assay with SF-268 CNS; 0.0792 µM in the assay on SK-MEL-2 melanoma; 0.0271 µM in the assay on CCRF-CEM leukemia; below 0.0244 µM in the assay on NCI-H23 lung; 0.0275 µM in the assay on SR leukemia; 0.0629 µM in the assay on OVCAR-8 ovarian. Also, the figures for the GI50 with UACC-62 melanoma, in the assay on NCI-H226 lung and in the assay on U251 CNS were 0.0998 µM, 0.0444 µM and 0.0364 µM, respectively. The TGI in the assay on SF-268 CNS amounted to 2.11 µM; in the assay on SK-MEL-2 melanoma, 0.582 µM; with CCRF-CEM leukemia, 4.68 µM; with NCI-H23 lung, 10.5 µM; in the assay with SR leukemia it was 1.71 µM; in the assay on OVCAR-8 ovarian it was 3.12 µM. In addition, the TGI was 2.14 µM in the assay with UACC-62 melanoma, 1.69 µM in the assay with NCI-H226 lung and 2.54 µM with U251 CNS.
On to `CC1(O)CCn2c(=O)c3cc4ccccc4cc3c(=O)n2C1O` (stereo not drawn), for which the TGI in the assay with SF-268 CNS, in the assay with SK-MEL-2 melanoma, with CCRF-CEM leukemia, in the assay with NCI-H23 lung, with SR leukemia and in the assay on OVCAR-8 ovarian was above 100 µM each time. In addition, the TGI in the assay with UACC-62 melanoma, in the assay on NCI-H226 lung and with U251 CNS was above 100 µM throughout.
Turning to `CC(C)[O-].CC(C)[O-].O=c1cccccc1[O-].O=c1cccccc1[O-].[Ti+4]`, the TGI in the assay with SF-268 CNS, with SK-MEL-2 melanoma, in the assay with CCRF-CEM leukemia, in the assay with NCI-H23 lung, in the assay on SR leukemia and in the assay with OVCAR-8 ovarian was above 100 µM throughout. In addition, the TGI in the assay on UACC-62 melanoma, with NCI-H226 lung and with U251 CNS was above 100 µM throughout. In addition, the GI50 in the assay with U251 CNS was 28.9 µM.
`COc1ccc(C(=O)c2nc3ccccc3n2CC(=O)c2ccc(Cl)cc2)cc1`: the GI50 in the assay with SF-268 CNS is 5.98 µM; in the assay on SK-MEL-2 melanoma it was 12.6 µM; with CCRF-CEM leukemia, 2.24 µM; with NCI-H23 lung it was 4.61 µM; in the assay on SR leukemia, 0.569 µM; in the assay on OVCAR-8 ovarian, 6.3 µM. Besides, the figures for the GI50 in the assay on UACC-62 melanoma, with NCI-H226 lung and in the assay on U251 CNS were 4.93 µM, above 28.4 µM and 3.41 µM, respectively. Further, the TGI with SF-268 CNS was above 100 µM; in the assay on SK-MEL-2 melanoma, above 100 µM; in the assay with CCRF-CEM leukemia, above 26.4 µM; with NCI-H23 lung it was above 100 µM; in the assay with OVCAR-8 ovarian it was above 100 µM; with UACC-62 melanoma, above 100 µM. Moreover, the TGI with NCI-H226 lung and with U251 CNS was above 100 µM each time.
`CSc1ccc(N(C)c2nc(C)nc3c2CCC3)cc1`: the GI50 in the assay on SF-268 CNS, with SK-MEL-2 melanoma, in the assay with CCRF-CEM leukemia, in the assay on NCI-H23 lung, in the assay with SR leukemia and in the assay on OVCAR-8 ovarian was below 0.01 µM in each case. Also, the GI50 in the assay with UACC-62 melanoma, with NCI-H226 lung and with U251 CNS was below 0.01 µM in each case. Moreover, the TGI with SF-268 CNS is 60.4 µM; in the assay on SK-MEL-2 melanoma it was 38.8 µM; in the assay on CCRF-CEM leukemia, 94.7 µM; in the assay on NCI-H23 lung, 33 µM; in the assay with SR leukemia, 11.6 µM; in the assay on OVCAR-8 ovarian it was above 100 µM. The TGI with UACC-62 melanoma is 25 µM; in the assay on NCI-H226 lung it was above 100 µM; in the assay on U251 CNS, above 100 µM.
Turning to `C/C1=C\CC[C@@](C)(O)[C@@H]2C[C@H](CC/C(C)=C/CC1)C1(CC1)C(=O)O2`, the GI50 was 81.7 µM in the assay with SF-268 CNS; 41.2 µM with SK-MEL-2 melanoma; 76.1 µM in the assay with CCRF-CEM leukemia; 18.9 µM with NCI-H23 lung; 28 µM with SR leukemia; 61.5 µM in the assay with OVCAR-8 ovarian. For the same compound, the results for the GI50 in the assay with UACC-62 melanoma, in the assay with NCI-H226 lung and in the assay with U251 CNS were 15.2 µM, 25.8 µM and 23 µM, respectively. In addition, the TGI with SF-268 CNS is above 100 µM; in the assay on SK-MEL-2 melanoma, above 100 µM; with CCRF-CEM leukemia, above 100 µM; in the assay on NCI-H23 lung, 48.7 µM; in the assay on SR leukemia it was 76.9 µM; in the assay on OVCAR-8 ovarian it was above 100 µM. The TGI with UACC-62 melanoma was 37.3 µM; in the assay on NCI-H226 lung, 76.2 µM; in the assay with U251 CNS, 57.1 µM.
For the compound `CC(=Nc1ccc(S(N)(=O)=O)cc1)c1c(O)[nH]c2ccccc12`, the GI50 in the assay with SF-268 CNS, in the assay with SK-MEL-2 melanoma, in the assay with CCRF-CEM leukemia, in the assay with NCI-H23 lung, in the assay on SR leukemia and with OVCAR-8 ovarian was above 25 µM in each case. Also, the GI50 in the assay on UACC-62 melanoma was above 25 µM; with NCI-H226 lung it was above 23.6 µM; with U251 CNS it was above 25 µM. In addition, the TGI in the assay on SF-268 CNS, in the assay on SK-MEL-2 melanoma, with CCRF-CEM leukemia, with NCI-H23 lung, in the assay with SR leukemia and in the assay with OVCAR-8 ovarian was above 25 µM each time. The TGI in the assay on UACC-62 melanoma, in the assay with NCI-H226 lung and in the assay with U251 CNS was above 25 µM each time.
For `C=C1C2Oc3ccccc3C1N(c1ccccc1)O2` (stereo not drawn), the TGI is above 100 µM in the assay with SF-268 CNS; above 100 µM in the assay on SK-MEL-2 melanoma; 89.5 µM in the assay on CCRF-CEM leukemia; above 100 µM in the assay with SR leukemia; 33.2 µM in the assay on OVCAR-8 ovarian; above 100 µM in the assay on NCI-H226 lung. This compound displayed a TGI in the assay on U251 CNS of 90 µM.
Turning to `O=C(NCCN1CCNCC1)c1ccc(Nc2nc3ccccc3c3occc23)cc1`, the GI50 was 21.3 µM in the assay on SF-268 CNS; 18.3 µM in the assay on SK-MEL-2 melanoma; 10.3 µM with CCRF-CEM leukemia; 12.6 µM in the assay with NCI-H23 lung; 25 µM with SR leukemia; 23.2 µM in the assay on OVCAR-8 ovarian. Moreover, the GI50 in the assay with UACC-62 melanoma is 17.6 µM; in the assay with U251 CNS, 17.9 µM. The TGI was above 100 µM in the assay on SF-268 CNS; 36.4 µM with SK-MEL-2 melanoma; 28.5 µM in the assay with CCRF-CEM leukemia; 27.6 µM with NCI-H23 lung; 43.8 µM with SR leukemia; 75.7 µM with OVCAR-8 ovarian. The TGI in the assay with UACC-62 melanoma came to 32 µM; in the assay with U251 CNS, 33.1 µM.
